Measured values reported in US9447408B2, “Method of efficiently establishing induced pluripotent stem cells” (Kyoto University, priority 2010, dated 2016).

Assays:
[1] = tested on: Mouse embryonic fibroblasts (MEFs); experiment: iPS cell establishment from MEFs, 3 genes (Oct3/4, Sox2, Klf4) introduced, with p38 inhibitors; assay type: cell-based; settings: 10 μM inhibitor added in the initial stage after the infection
Method: Three genes were introduced using a retrovirus by the same experimental procedures as the above. The cells were cultured at a cell density of 2×10^4 cells/10 cm dish, with the addition of 10 μM of SB202190, SB239063, or SB203580 (Calbiochem Company) to the medium per the schedule shown below, and the establishment efficiency was compared. • 1. Oct3/4, Sox2, Klf4, each derived from mouse, saline • 2. Oct3/4, Sox2, Klf4, each derived from mouse, DMSO • 3. Oct3/4, Sox2, Klf4, each derived from mouse, SB202190 10 μM (Day 1-4) • 4. Oct3/4, Sox2, Klf4, each derived from mouse, SB202190 10 μM (Day 1-8) • 5. Oct3/4, Sox2, Klf4, each derived from mouse, SB202190 10 μM (Day 9-16) • 6. Oct3/4, Sox2, Klf4, each derived from mouse, SB202190 10 μM (Day 1-16) • 7. Oct3/4, Sox2, Klf4, each derived from mouse, SB239063 10 μM (Day 1-4) • 8. Oct3/4, Sox2, Klf4, each derived from mouse, SB239063 10 μM (Day 1-8) • 9. Oct3/4, Sox2, Klf4, each derived from mouse, SB239063 10 μM (Day 9-16) • 10. Oct3/4, Sox2, Klf4, each derived from mouse, SB239063 10 μM (Day 1-16) • 11. Oct3/4, Sox2, Klf4, each derived from mouse, SB203580 10 μM (Day 1-4) • 12. Oct3/4, Sox2, Klf4, each derived from mouse, SB203580 10 μM (Day 1-8) • 13. Oct3/4, Sox2, Klf4, each derived from mouse, SB203580 10 μM (Day 9-16) • 14. Oct3/4, Sox2, Klf4, each derived from mouse, SB203580 10 μM (Day 1-16),

[2] = tested on: Mouse embryonic fibroblasts (MEFs); experiment: iPS cell establishment from Nanog-GFP reporter MEFs, 4 genes (Oct3/4, Sox2, Klf4, c-Myc) introduced, with p38 inhibitors; assay type: cell-based
Method: Mouse embryonic fibroblasts (MEFs) from a Nanog reporter mouse carrying Nanog-GFP—IRES-Puro^r [Okita K. et al, Nature 448, 313-317 (2007)] were transfected with four genes using a retrovirus to induce iPS cells.
Each retrovirus for reprogramming was prepared by transferring each of retroviral expression vectors (pMXs-Oct3/4, pMXs-Sox2, pMXs-Klf4, pMXs-cMyc:Cell, 126, 663-676 (2006)) to Plat-E cells (Morita, S. et al., Gene Ther. 7, 1063-1066) that had been seeded to a 6-well culture plate (Falcon) at 0.6×10^6 cells per well on the day before. The cells were cultured at 37° C. in the presence of 5% CO2 using DMEM/10% FCS [a culture broth prepared by adding 10% fetal calf serum to DMEM (Nacalai Tesque)]. To facilitate vector transfer, 4.5 μL of FuGene6 transfection reagent (Roche) was placed in 100 μL of Opti-MEM I Reduced-Serum Medium (Invitrogen), and the medium was allowed to stand at room temperature for 5 minutes. Subsequently, 1.5 μg of each expression vector was added, and the medium was allowed to further stand at room temperature for 15 minutes, after which they were added to the Plat-E culture broth. On day 2, the Plat-E supernatant was replaced with a fresh supply of the medium. On day 3, the culture supernatant was recovered and filtered through a 0.45 μm sterile filter (Whatman), and polybrene (Nacalai) was added at 4 μg/mL to yield a viral liquid.
Mouse embryonic fibroblasts (MEFs) were isolated from a fetal Nanog reporter mouse (13.5 days after fertilization). […] Not expressing the puromycin resistance gene as well, MEFs are susceptible to the antibiotic puromycin. As such, MEFs were seeded to a 6-well culture plate (Falcon), previously coated with 0.1% gelatin (Sigma), at 1.0×10^5 cells per well. DMEM/10% FCS served as the culture broth at 37° C. in the presence of 5% CO2. The following day, each retrovirus liquid was added, and this was followed by overnight infection to introduce the genes.
On day 1 after the viral infection, the medium for the MEFs was removed, and the cells were washed by the addition of 1 mL of PBS. After removing the PBS, 0.25% Trypsin/1 mM EDTA (Invitrogen) was added, and a reaction was carried out at 37° C. for about 5 minutes. After the cells floated up, the cells were suspended by the addition of an ES cell culture medium and 2500 cells were seeded to a 100 mm dish having mitomycin C-treated STO feeder cells seeded thereto previously. Cultivation was continued while replacing the ES cell culture medium with a fresh supply of the same medium every two days until a visible colony emerged.
To determine the effects of p38 inhibitors on the establishment of iPS cells by the introduction of the four mouse genes, cultivation was continued with the addition of 10 μM of the p38 inhibitor 5B202190, SB239063, or SB203580 (Calbiochem Company) to the medium per the schedule shown below. All these inhibitors were used in solution in DMSO. • 1. Oct3/4, Sox2, Klf4, c-Myc, each derived from mouse, saline • 2. Oct3/4, Sox2, Klf4, c-Myc, each derived from mouse, DMSO • 3. Oct3/4, Sox2, Klf4, c-Myc, each derived from mouse, SB202190 10 μM Day 1-4) • 4. Oct3/4, Sox2, Klf4, c-Myc, each derived from mouse, SB202190 10 μM (Day 1-8) • 5. Oct3/4, Sox2, Klf4, c-Myc, each derived from mouse, SB202190 10 μM (Day 9-16) • 6. Oct3/4, Sox2, Klf4, c-Myc, each derived from mouse, SB202190 10 μM (Day 1-16) • 7. Oct3/4, Sox2, Klf4, c-Myc, each derived from mouse, SB239063 10 μM (Day 1-4) • 8. Oct3/4, Sox2, Klf4, c-Myc, each derived from mouse, SB239063 10 μM (Day 1-8) • 9. Oct3/4, Sox2, Klf4, c-Myc, each derived from mouse, SB239063 10 μM (Day 9-16) • 10. Oct3/4, Sox2, Klf4, c-Myc, each derived from mouse, SB239063 10 μM (Day 1-16) • 11. Oct3/4, Sox2, Klf4, c-Myc, each derived from mouse, SB203580 10 μM (Day 1-4) • 12. Oct3/4, Sox2, Klf4, c-Myc, each derived from mouse, SB203580 10 μM (Day 1-8) • 13. Oct3/4, Sox2, Klf4, c-Myc, each derived from mouse, SB203580 10 μM (Day 9-16) • 14. […]

C[S+]([O-])c1ccc(-c2nc(-c3ccc(F)cc3)c(-c3ccncc3)[nH]2)cc1 (stereo not drawn) [SB203580, 4-(4-fluorophenyl)-2-(4-methylsulfinylphenyl)-5-(4-pyridyl)-1H-imidazole]
number of positive cells compared with DMSO treatment [1]: increased
effect on colony count when measured on day 28 after the infection ([2]; 10 μM inhibitor on days 1 to 4, counted day 28): remarkable
colony count compared with cells treated with physiological saline or DMSO ([2]; 10 μM inhibitor on days 1 to 4 after the infection, FIG. 1): tended to increase
